Experimental data: US7179825B2, “Retinoic acid mimetic anilides” (Janssen Pharmaceutica N.V., priority 1997, dated 2007)

Experiments:
[1] = test system: metabolism of retinoic acid in human breast cancer cells; experiment: Inhibition of retinoic acid (RA) metabolism (Example C.1); type: cell-based; conditions: MCF-7 human breast cancer cells, 3H-RA as substrate, concentration needed to reduce the amount of metabolites to 50% of the control
Method in brief: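 Test compound (in 1% DMSO) added at several concentrations to MCF-7 cell suspensions fed ³H-RA, after RA induction of metabolism one day earlier. Scintillation counting of the separated polar metabolite fraction; IC50 = concentration giving 50% of control metabolite level.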

Ovariectomized rats = experiment: Vaginal keratinization test on ovariectomized rats (Example C.2); type: in vivo; conditions: estradiol undecylate induced keratinization, per os once daily on days 1-3, active dose = 50% of rats show complete suppression; for minimal effective dose: Rattus norvegicus, po, read-out: LAD (lowest active dose)
Method in brief: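 Value is the lowest oral dose (mg/kg) at which half of tested rats show complete suppression of estradiol undecylate-induced vaginal keratinization by histology. Ovariectomized rats received 100 μg/100 g estradiol undecylate s.c., then compound or PEG 200 vehicle p.o. daily for three days; sacrifice one day later.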

| Compound | IC50 [1] | IC50 ([1]; MCF7) | LAD (lowest active dose) (Ovariectomized rats) | minimal effective dose (Ovariectomized rats) |
| --- | --- | --- | --- | --- |
| CC(C)C(c1ccc(NC(=O)C2=Cc3ccccc3OC2)cc1)n1ccnc1 (racemic) [Compound 254] | 6.47 nM |  | >5.00 mg/kg |  |
| CC(C)C(c1ccc(NC(=O)CNC(=O)OCc2ccccc2)cc1)n1ccnc1 (racemic) [Compound 262] | 7.48 nM |  | 20.00 mg/kg |  |
| CC(C)C(c1ccc(NC(N)=O)cc1)n1ccnc1 (racemic) [Compound 266, (±)-4-[1-(1H-imidazol-1-yl)-2-methylpropyl]phenylurea] |  | 31.1 nM |  | > 10 mg/kg |
| CC(C)NC(=O)Nc1ccc(C(C(C)C)n2ccnc2)cc1 (racemic) [Compound 268] | 7.79 nM |  | >10.00 mg/kg |  |
| CC(C)C(c1ccc(NC(=O)Nc2ccccn2)cc1)n1ccnc1 (racemic) [Compound 274, (±)-N-(2-pyridinyl)-N′-[4-[1-(1H-imidazol-1-yl)-2-methylpropyl]phenyl]urea] |  | 6.64 nM |  | > 10 mg/kg |
| CC(C)C(c1ccc(NC(=O)Nc2ccc3c(c2)OCCO3)cc1)n1ccnc1 (racemic) [Compound 276] | 16 nM |  | >10.00 mg/kg |  |
| O=C(Cc1ccc(Cl)cc1)Nc1ccc(C(c2ccc(Cl)cc2)n2ccnc2)cc1 (racemic) [Compound 356] | > 100 nM |  | >10.00 mg/kg |  |
| CC(c1ccc(NC(=O)Cc2ccc(Cl)cc2)cc1)n1ccnc1 (racemic) [Compound 358] | > 100 nM |  | >10.00 mg/kg |  |
| C/C(=C\c1ccccc1)C(=O)N(C)c1ccc(C(C(C)C)n2ccnc2)cc1 (racemic) [Compound 421] | > 100 nM |  | >10.00 mg/kg |  |
| CCN(C(=O)/C(C)=C/c1ccccc1)c1ccc(C(C(C)C)n2ccnc2)cc1 (racemic) [Compound 422] | > 10 nM |  | >10.00 mg/kg |  |
| O=C(Nc1ccc(C(c2ccccc2)n2ccnc2)cc1)c1cnccn1 (racemic) [Compound 424] | > 100 nM |  | >10.00 mg/kg |  |
| CCC(CC)C(c1ccc(N(C)C(=O)Cc2ccc(OC)c(OC)c2)cc1)n1ccnc1 (racemic) [Compound 427] | 8.34 nM |  | 2.50 mg/kg |  |
| CC(=Cc1ccccc1)C(=O)Nc1ccc(C(c2ccccc2)n2ccnc2)cc1 (racemic) [Compound 445] | 192 nM |  | >20.00 mg/kg |  |
| Cc1ccccc1C(=Cc1ccccc1)C(=O)Nc1ccc(C(C(C)C)n2ccnc2)cc1 (racemic) [Compound 456] | 140 nM |  | >20.00 mg/kg |  |
| CCC(=Cc1ccccc1)C(=O)Nc1ccc(C(C(C)C)n2ccnc2)cc1 (racemic) [Compound 457] | 25 nM |  | >20.00 mg/kg |  |
| CCC(c1ccc(NC(=O)/C(C)=C/c2ccccc2)cc1)n1ccnc1 (racemic) [Compound 460] | 36.3 nM |  | >20.00 mg/kg |  |
| CC(C)C(c1ccc(NC(=O)C(F)=Cc2ccccc2)cc1)n1ccnc1 (racemic) [Compound 461] | 16.9 nM |  | 10.00 mg/kg |  |
| CCCCC(c1ccc(NC(=O)/C(C)=C/c2ccccc2)cc1)n1ccnc1 (racemic) [Compound 462] | > 1000 nM |  | 20.00 mg/kg |  |
| C/C(=C\c1ccccc1)C(=O)Nc1ccc(C(C2CCCCC2)n2ccnc2)cc1 (racemic) [Compound 463] | 24.5 nM |  | 20.00 mg/kg |  |
| CCC/C(=C\c1ccccc1)C(=O)Nc1ccc(C(C(C)C)n2ccnc2)cc1 (racemic) [Compound 464] | 149 nM |  | >20.00 mg/kg |  |
| CCCC/C(=C\c1ccccc1)C(=O)Nc1ccc(C(C(C)C)n2ccnc2)cc1 (racemic) [Compound 465] | 50.4 nM |  | >20.00 mg/kg |  |
| C/C(=C\c1ccccc1)C(=O)Nc1ccc(C(C)n2ccnc2)cc1 (racemic) [Compound 466] | > 1000 nM |  | >20.00 mg/kg |  |

Continued by falling IC50 [1], values first:

| IC50 [1] | IC50 ([1]; MCF7) | Compound | LAD (lowest active dose) (Ovariectomized rats) | minimal effective dose (Ovariectomized rats) |
| --- | --- | --- | --- | --- |
| 6.25 nM |  | CC(C)CC(c1ccc(NC(=O)Cc2ccc(Cl)cc2)cc1)n1ccnc1 (racemic) [Compound 359] | >10.00 mg/kg |  |
| 6.24 nM |  | CC(C)C(c1ccc(NC(=O)Cc2ccc3c(c2)OCCO3)cc1)n1ccnc1 (racemic) [Compound 255] | 5.00 mg/kg |  |
| 5.61 nM |  | CC(C)C(c1ccc(NC(=O)Nc2cccnc2)cc1)n1ccnc1 (racemic) [Compound 270] | >10.00 mg/kg |  |
| 4.81 nM |  | CC(C)C(c1ccc(NC(=O)Nc2cccc3ccccc23)cc1)n1ccnc1 (racemic) [Compound 272] | >10.00 mg/kg |  |
| 4.66 nM |  | CC(C)C(c1ccc(NC(=O)N(C)Cc2ccccc2)cc1)n1ccnc1 (racemic) [Compound 263] | >10.00 mg/kg |  |
| 4.28 nM |  | CC(C)C(c1ccc(NC(=O)Nc2ccncc2)cc1)n1ccnc1 (racemic) [Compound 275] | >10.00 mg/kg |  |
| 3.2 nM |  | CC(C)C(c1ccc(NC(=O)Cc2ccc3c(c2)C(C)(C)CCC3(C)C)cc1)n1ccnc1 (racemic) [Compound 256] | >2.50 mg/kg |  |
| 2.87 nM |  | C/C(=C\c1ccccc1)C(=O)Nc1ccc(C(C(C)C)n2ccnc2)cc1 (racemic) [Compound 455] | 2.50 mg/kg |  |
| 2.8 nM |  | CN(C)CC(c1ccc(NC(=O)Oc2ccccc2)cc1)n1ccnc1 (racemic) [Compound 435] | >2.50 mg/kg |  |
| 2.71 nM |  | CC(C)C(c1ccc(NC(=O)CC2(CC(=O)O)CCCC2)cc1)n1ccnc1 (racemic) [Compound 264] | >10.00 mg/kg |  |
| 2.58 nM |  | CCCC(c1ccc(NC(=O)/C(C)=C/c2ccccc2)cc1)n1ccnc1 (racemic) [Compound 467] | >20.00 mg/kg |  |
| 2.45 nM |  | CC(C)C(c1ccc(NC(=O)Nc2cnccn2)cc1)n1ccnc1 (racemic) [Compound 271] | 10.00 mg/kg |  |
| 2.22 nM |  | CC(C)C(c1ccc(NC(=O)CNC(=O)c2ccccc2)cc1)n1ccnc1 (racemic) [Compound 261] | >10.00 mg/kg |  |
| 1.74 nM |  | CCCC(CCC)C(c1ccc(NC(=O)Cc2ccc(OC)c(OC)c2)cc1)n1ccnc1 (racemic) [Compound 378] | 2.50 mg/kg |  |
| 1.41 nM |  | CCC(C)C(c1ccc(NC(=O)Cc2ccc(Cl)cc2)cc1)n1ccnc1 (racemic) [Compound 364] | 2.50 mg/kg |  |
| 1.35 nM |  | COCC(C)C(c1ccc(NC(=O)Cc2ccc(OC)c(OC)c2)cc1)n1ccnc1 (racemic) [Compound 404, (±)-(A)-3,4-dimethoxy-N-[4-[1-(1H-imidazol-1-yl)-3-methoxy-2-methylpropyl]phenyl]benzeneacetamide] | 5.00 mg/kg |  |
| 1.17 nM |  | CC(C)C(c1ccc(NC(=O)Nc2nc3ccccc3n2C)cc1)n1ccnc1 (racemic) [Compound 277] | >5.00 mg/kg |  |
| 1.08 nM |  | CC(C)(C)CC(c1ccc(NC(=O)Cc2ccc(Cl)cc2)cc1)n1ccnc1 (racemic) [Compound 360] | 2.50 mg/kg |  |
